Laboratory results reported in patent US20240150356A1, “Pyrimidine amide compounds and use thereof” (ALPHALA CO., LTD., priority 2019, published 2024).

What follows are compounds tested on Hep3B cells (hepatocellular carcinoma cell line) (assay: In vitro MTS cell viability assay (NCI-60 methodology), Hep3B). Conditions: Homo sapiens, 48 h, Table 1, MTS, 2 days drug incubation, 50% reduction vs time zero, read-out: Hep3B LC50.
Assay type: cell-based
Procedure, shortened: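 Following NCI-60 method, MTS viability of Hep3B measured 24 h after plating (time zero) and after a further 2-day exposure to five concentrations (2-fold series). LC50 defined where [(Ti−Tz)/Tz]×100 = −50.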

In order of rising LC50:
1. O=C(Nc1nc(-c2ccc(OC(F)(F)F)cc2)nc2c1cnn2CCN1CCOCC1)c1ccc([N+](=O)[O-])s1 [Compound 1-30, N-(1-(2-morpholinoethyl)-6-(4-(trifluoromethoxy)phenyl)-1H-pyrazolo[3,4-d]pyrimidin-4-yl)-5-nitrothiophene-2-carboxamide]  1700 nM
2. O=C(Nc1nc(-c2ccc(OC(F)(F)F)cc2)nc2c1cnn2CCO)c1ccc([N+](=O)[O-])s1 [Compound 1-28, N-(1-(2-hydroxyethyl)-6-(4-(trifluoromethoxy)phenyl)-1H-pyrazolo[3,4-d]pyrimidin-4-yl)-5-nitrothiophene-2-carboxamide]  4030 nM

Same assay, conditions: Homo sapiens, 48 h, Table 4, MTS, 2 days drug incubation, 50% reduction vs time zero, read-out: Hep3B LC50

Going from `CC(C)(C)OC(=O)N1CCC(n2cnc3c(NC(=O)c4ccc([N+](=O)[O-])s4)nc(-c4ccc(F)cc4)nc32)CC1` [Compound 4-20, tert-butyl 4-(2-(4-fluorophenyl)-6-(5-nitrothiophene-2-carboxamide)-9H-purin-9-yl) piperidine-1-carboxylate] to `O=C(Nc1nc(-c2ccc(F)cc2)nc2c(-c3ccccc3)csc12)c1ccc([N+](=O)[O-])s1` [Compound 4-15, N-(2-(4-fluorophenyl)-7-phenylthieno[3,2-d]pyrimidin-4-yl)-5-nitrothiophene-2-carboxamide], the LC50 falls from over 1250 nM to 620 nM.

Same assay, conditions: Homo sapiens, 48 h, Table 5, MTS, 2 days drug incubation, 50% reduction vs time zero, read-out: Hep3B LC50

Compared with `O=C(Nc1nc(Sc2ccccc2)nc2c1cnn2-c1ccccc1)c1ccc([N+](=O)[O-])s1` [Compound 5-15, 5-nitro-N-(1-phenyl-6-(phenylthio)-1H-pyrazolo[3,4-d]pyrimidin-4-yl)thiophene-2-carboxamide], `O=C(Nc1nc(-c2ccco2)nc2c1cnn2-c1ccccc1)c1ccc([N+](=O)[O-])s1` [Compound 5-17, N-(6-(furan-2-yl)-1-phenyl-1H-pyrazolo[3,4-d]pyrimidin-4-yl)-5-nitrothiophene-2-carboxamide] is lower in LC50: over 5000 nM for the first, 400 nM for the second.

`O=C(Nc1nc(-c2cncnc2)nc2c1cnn2-c1ccccc1)c1ccc([N+](=O)[O-])s1` [Compound 5-24, 5-nitro-N-(1-phenyl-6-(pyrimidin-5-yl)-1H-pyrazolo[3,4-d]pyrimidin-4-yl)thiophene-2-carboxamide] and `Cc1noc(C)c1-c1nc(NC(=O)c2ccc([N+](=O)[O-])s2)c2cnn(-c3ccccc3)c2n1` [Compound 5-21, N-(6-(3,5-dimethylisoxazol-4-yl)-1-phenyl-1H-pyrazolo[3,4-d]pyrimidin-4-yl)-5-nitrothiophene-2-carboxamide] are within 1.5-fold of each other in LC50: 960 nM for the first, 760 nM for the second.

In the case of `C[C@@H]1CN(c2nc(NC(=O)c3ccc([N+](=O)[O-])s3)c3cnn(-c4ccccc4)c3n2)C[C@H](C)O1` [Compound 5-8, N-(6-((2S,6R)-2,6-dimethylmorpholino)-1-phenyl-1H-pyrazolo[3,4-d]pyrimidin-4-yl)-5-nitrothiophene-2-carboxamide], the LC50 is reported as 1710 nM.

Same assay, conditions: Homo sapiens, 48 h, Table 6, MTS, 2 days drug incubation, 50% reduction vs time zero, read-out: Hep3B LC50

First: O=C(Nc1nc(-c2ccc(C(F)(F)F)cc2)nc2c1cnn2-c1ccc(F)cc1)c1ccc([N+](=O)[O-])s1 [Compound 6-122, N-(1-(4-fluorophenyl)-6-(4-(trifluoromethyl)phenyl)-1H-pyrazolo[3,4-d]pyrimidin-4-yl)-5-nitrothiophene-2-carboxamide]
Second: O=C(Nc1nc(-c2ccc(F)cc2)nc2c1cnn2-c1ccc(Cl)cc1)c1ccc([N+](=O)[O-])s1 [Compound 6-48, N-(1-(4-chlorophenyl)-6-(4-fluorophenyl)-1H-pyrazolo[3,4-d]pyrimidin-4-yl)-5-nitrothiophene-2-carboxamide]
The LC50 of the first is 1.6-fold higher: 280 nM for the first, 180 nM for the second.

First: Cc1ccc(-n2ncc3c(NC(=O)c4ccc([N+](=O)[O-])s4)nc(-c4ccc(Cl)cc4)nc32)cc1 [Compound 6-7]
Second: O=C(Nc1nc(-c2ccc(Cl)cc2)nc2c1cnn2-c1ccc(Cl)cc1)c1ccc([N+](=O)[O-])s1 [Compound 6-49, N-(1,6-bis(4-chlorophenyl)-1H-pyrazolo[3,4-d]pyrimidin-4-yl)-5-nitrothiophene-2-carboxamide]
The LC50 of the first is 1.7-fold higher: 290 nM for the first, 170 nM for the second.

First: Cc1ccccc1-n1ncc2c(NC(=O)c3ccc([N+](=O)[O-])s3)nc(N3CCC[C@H]3CO)nc21 [Compound 6-1, (S)—N-(6-(2-(hydroxymethyl)pyrrolidin-1-yl)-1-(o-tolyl)-1H-pyrazolo[3,4-d]pyrimidin-4-yl)-5-nitrothiophene-2-carboxamide]
Second: CCOCCOCCOC[C@@H]1CCCN1c1nc(NC(=O)c2ccc([N+](=O)[O-])s2)c2cnn(-c3ccc(C(C)(C)C)cc3)c2n1 [Compound 6-72, (S)—N-(1-(4-(tert-butyl)phenyl)-6-(2-((2-(2-ethoxyethoxy)ethoxy)methyl)pyrrolidin-1-yl)-1H-pyrazolo[3,4-d]pyrimidin-4-yl)-5-nitrothiophene-2-carboxamide]
The LC50 of the first is higher: over 3000 nM for the first, 670 nM for the second.

Compared with `CCOCCOCCOc1cc(Cl)ccc1-c1nc(NC(=O)c2ccc([N+](=O)[O-])s2)c2cnn(-c3ccc(F)cc3)c2n1` [Compound 6-140, N-(6-(4-chloro-2-(2-(2-ethoxyethoxy)ethoxy)phenyl)-1-(4-fluorophenyl)-1H-pyrazolo[3,4-d]pyrimidin-4-yl)-5-nitrothiophene-2-carboxamide], `CCOCCOCCOc1ccc(-c2nc(NC(=O)c3ccc([N+](=O)[O-])s3)c3cnn(-c4ccc(F)cc4)c3n2)cn1` [Compound 6-137, N-(6-(6-(2-(2-ethoxyethoxy)ethoxy)pyridin-3-yl)-1-(4-fluorophenyl)-1H-pyrazolo[3,4-d]pyrimidin-4-yl)-5-nitrothiophene-2-carboxamide] is 27-fold lower in LC50: 4830 nM for the first, 180 nM for the second.

Going from `COCCOc1ccc(-c2nc(NC(=O)c3ccc([N+](=O)[O-])s3)c3cnn(-c4ccc(Cl)cc4)c3n2)cn1` [Compound 6-51, N-(1-(4-chlorophenyl)-6-(6-(2-methoxyethoxy)pyridin-3-yl)-1H-pyrazolo[3,4-d]pyrimidin-4-yl)-5-nitrothiophene-2-carboxamide] to `CCOCCOc1ccc(-c2nc(NC(=O)c3ccc([N+](=O)[O-])s3)c3cnn(-c4cccc(Cl)c4)c3n2)cn1` [Compound 6-44, N-(1-(3-chlorophenyl)-6-(6-(2-ethoxyethoxy)pyridin-3-yl)-1H-pyrazolo[3,4-d]pyrimidin-4-yl)-5-nitrothiophene-2-carboxamide], the LC50 rises from 50 nM to 450 nM (9-fold).

`COc1ccc(-n2ncc3c(NC(=O)c4ccc([N+](=O)[O-])s4)nc(C4CCC(C)(C)CC4)nc32)cc1` [Compound 6-30, N-(6-(4,4-dimethylcyclohexyl)-1-(4-methoxyphenyl)-1H-pyrazolo[3,4-d]pyrimidin-4-yl)-5-nitrothiophene-2-carboxamide] and `COc1ccc(-n2ncc3c(NC(=O)c4ccc([N+](=O)[O-])s4)nc(OC4CCCCC4)nc32)cc1` [Compound 6-16, N-(6-(cyclohexyloxy)-1-(4-methoxyphenyl)-1H-pyrazolo[3,4-d]pyrimidin-4-yl)-5-nitrothiophene-2-carboxamide] are within 1.5-fold of each other in LC50: 1320 nM for the first, 1360 nM for the second.

Compared with `Cc1ccn(-c2nc(NC(=O)c3ccc([N+](=O)[O-])s3)c3cnn(-c4ccc(F)cc4)c3n2)n1` [Compound 6-108], `COc1ccc(-n2ncc3c(NC(=O)c4ccc([N+](=O)[O-])s4)nc(-c4ccc5c(c4)OCO5)nc32)cc1` [Compound 6-24, N-(6-(benzo[d][1,3]dioxol-5-yl)-1-(4-methoxyphenyl)-1H-pyrazolo[3,4-d]pyrimidin-4-yl)-5-nitrothiophene-2-carboxamide] is 2.1-fold higher in LC50: 90 nM for the first, 190 nM for the second.

Same assay, conditions: Homo sapiens, 48 h, Table 7, MTS, 2 days drug incubation, 50% reduction vs time zero, read-out: Hep3B LC50

For `O=C(Nc1nc(-c2ccc(F)cc2F)nc2c1cnn2-c1ccc(C(F)(F)F)cn1)c1ccc([N+](=O)[O-])s1` [Compound 7-6], the LC50 was 150 nM.

Same assay, conditions: Homo sapiens, 48 h, Table 8, MTS, 2 days drug incubation, 50% reduction vs time zero, read-out: Hep3B LC50

Work on `CC(=O)N1CC[C@H](n2ncc3c(NC(=O)c4ccc([N+](=O)[O-])s4)nc(-c4ccc(F)nc4)nc32)C1` [Compound 8-2, (S)—N-(1-(1-acetylpyrrolidin-3-yl)-6-(6-fluoropyridin-3-yl)-1H-pyrazolo[3,4-d]pyrimidin-4-yl)-5-nitrothiophene-2-carboxamide] yielded an LC50 of over 3000 nM.

Same assay, conditions: Homo sapiens, 48 h, Table 9, MTS, 2 days drug incubation, 50% reduction vs time zero, read-out: Hep3B LC50

`CC(C)(C)C(=O)N1CCC(n2ncc3c(NC(=O)c4ccc([N+](=O)[O-])s4)nc(-c4ccc(F)nc4)nc32)CC1` [Compound 9-8, N-(6-(6-fluoropyridin-3-yl)-1-(1-pivaloylpiperidin-4-yl)-1H-pyrazolo[3,4,d]pyrimidin-4-yl)-5-nitrothiophene-2-carboxamide] showed an LC50 of 1900 nM.

Same assay, conditions: Homo sapiens, 48 h, Table 10, MTS, 2 days drug incubation, 50% reduction vs time zero, read-out: Hep3B LC50

In order of falling LC50:
1. CN(C)Cc1ccc(-c2nc(NC(=O)c3ccc([N+](=O)[O-])s3)c3cnn(C4CCCCC4)c3n2)cc1 [Compound 10-29, N-(1-cyclohexyl-6-(4-((dimethylamino)methyl)phenyl)-1H-pyrazolo[3,4-d]pyrimidin-4-yl)-5-nitrothiophene-2-carboxamide]  1510 nM
2. Cc1ccc(-c2nc(NC(=O)c3ccc([N+](=O)[O-])s3)c3cnn(C4CCCCC4)c3n2)cn1 [Compound 10-19]  1130 nM
3. O=C(Nc1nc(-c2ccc(F)cc2)nc2c1cnn2C1CCC(F)(F)CC1)c1ccc([N+](=O)[O-])s1 [Compound 10-54, N-(1-(4,4-difluorocyclohexyl)-6-(4-fluorphenyl)-1H-pyrazolo[3,4-d]pyrimidin-4-yl)-5-nitrothiophene-2-carboxamide]  920 nM
4. CCOC(=O)c1ccc(-c2nc(NC(=O)c3ccc([N+](=O)[O-])s3)c3cnn(C4CCCCC4)c3n2)cc1 [Compound 10-33, ethyl 4-(1-cyclohexyl-4-(5-nitrothiophene-2-carboxamido)-1H-pyrazolo[3,4-d]pyrimidin-6-yl)benzoate]  540 nM
5. O=C(Nc1nc(-c2ccc(Cl)cc2)nc2c1cnn2C1CCCCC1)c1ccc([N+](=O)[O-])s1 [Compound 10-17, N-(6-(4-chlorophenyl)-1-cyclohexyl-1H-pyrazolo[3,4-d]pyrimidin-4-yl)-5-nitrothiophene-2-carboxamide]  530 nM
